# The source made the active and inactive calls.
# Assays:
# [1] = molecular target: T1, Beta-lactamase (Pseudomonas aeruginosa, UniProt Q79MP6); assay: IMP-1 metallo-beta-lactamase inhibitors, dose response, selectivity assay for VIM-2 inhibitor project, biochemical, epi-absorbance (AID 1920)
# [2] = molecular target: T1, Beta-lactamase; assay: […] counterscreen for selective VIM-2 inhibitors: dose response biochemical high throughput screening assay to identify inhibitors of IMP-1 metallo-beta-lactamase.
# [3] = molecular target: Beta-lactamase (Salmonella choleraesuis (strain SC-B67), UniProt Q5J463); assay: Epi-absorbance-based counterscreen for selective VIM-2 inhibitors: dose response biochemical high throughput screening assay to identify inhibitors of TEM-1 serine-beta-lactamase.
# Sequence of Beta-lactamase (Salmonella choleraesuis (strain SC-B67), UniProt Q5J463) (Q5J463 whole entry): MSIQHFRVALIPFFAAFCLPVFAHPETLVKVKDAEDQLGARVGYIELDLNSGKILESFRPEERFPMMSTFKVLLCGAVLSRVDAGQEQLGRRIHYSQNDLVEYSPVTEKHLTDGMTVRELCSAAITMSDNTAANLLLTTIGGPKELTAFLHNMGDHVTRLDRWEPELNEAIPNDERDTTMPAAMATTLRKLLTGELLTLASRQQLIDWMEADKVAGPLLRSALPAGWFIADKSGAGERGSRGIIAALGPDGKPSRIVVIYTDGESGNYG
# [4] = molecular target: T2, Nuclear receptor subfamily 0 group B member 1 (Homo sapiens, UniProt P51843); format: functional, cell-based;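 also: HEK293T cells transfected with SF-1 and DAX-1 plus StAR promoter luciferase reporter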
# T2 sequence (P51843 whole entry): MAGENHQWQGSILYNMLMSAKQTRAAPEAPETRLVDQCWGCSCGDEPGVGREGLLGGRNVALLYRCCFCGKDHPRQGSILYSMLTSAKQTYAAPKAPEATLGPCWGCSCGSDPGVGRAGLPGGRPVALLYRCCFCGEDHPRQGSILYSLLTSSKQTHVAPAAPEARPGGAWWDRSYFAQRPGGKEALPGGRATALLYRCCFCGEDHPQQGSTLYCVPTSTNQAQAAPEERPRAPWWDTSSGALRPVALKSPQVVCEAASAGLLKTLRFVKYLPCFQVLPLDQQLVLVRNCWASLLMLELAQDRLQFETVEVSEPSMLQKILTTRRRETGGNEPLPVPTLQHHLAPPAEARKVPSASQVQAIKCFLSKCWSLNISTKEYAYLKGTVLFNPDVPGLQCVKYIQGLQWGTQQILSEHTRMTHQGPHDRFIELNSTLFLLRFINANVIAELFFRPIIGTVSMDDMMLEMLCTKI
# [5] = cells; format: functional, cell-based
# [6] = molecular target: Fructose-bisphosphate aldolase (Mycobacterium tuberculosis, UniProt P9WQA3); assay: Fluorescence-based biochemical high throughput dose response assay for inhibitors of the fructose-bisphosphate aldolase (FBA) of M. tuberculosis.; format: functional
# Sequence of Fructose-bisphosphate aldolase (P9WQA3 whole entry): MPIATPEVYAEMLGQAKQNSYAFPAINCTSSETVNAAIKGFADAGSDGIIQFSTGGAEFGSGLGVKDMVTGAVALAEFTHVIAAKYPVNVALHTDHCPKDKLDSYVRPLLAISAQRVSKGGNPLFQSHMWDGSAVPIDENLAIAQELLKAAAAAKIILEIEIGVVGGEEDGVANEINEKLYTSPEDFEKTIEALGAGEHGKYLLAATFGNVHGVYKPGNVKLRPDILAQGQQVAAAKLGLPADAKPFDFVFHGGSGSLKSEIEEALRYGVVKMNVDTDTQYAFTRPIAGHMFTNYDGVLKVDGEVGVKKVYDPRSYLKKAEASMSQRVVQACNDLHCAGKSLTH
# [7] = molecular target: T3, Oxysterols receptor LXR-beta (Homo sapiens, UniProt P55055); format: functional, cell-based
# T3 sequence (P55055 whole entry): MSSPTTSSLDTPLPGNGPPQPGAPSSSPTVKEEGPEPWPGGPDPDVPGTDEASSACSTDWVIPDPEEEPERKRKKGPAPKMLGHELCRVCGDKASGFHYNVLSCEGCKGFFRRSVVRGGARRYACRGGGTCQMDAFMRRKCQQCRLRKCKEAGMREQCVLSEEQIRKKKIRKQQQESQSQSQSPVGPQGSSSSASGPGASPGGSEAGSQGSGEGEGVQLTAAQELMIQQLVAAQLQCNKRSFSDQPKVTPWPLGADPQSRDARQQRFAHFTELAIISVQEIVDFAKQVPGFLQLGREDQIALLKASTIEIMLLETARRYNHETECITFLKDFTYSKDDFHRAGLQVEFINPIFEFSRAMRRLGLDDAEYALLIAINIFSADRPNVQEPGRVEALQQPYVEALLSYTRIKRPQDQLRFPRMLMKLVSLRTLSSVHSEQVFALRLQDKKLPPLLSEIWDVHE
# [8] = cells
# [9] = molecular target: T3, Oxysterols receptor LXR-beta; format: functional, cell-based; remark: listed apart in the source
# [10] = molecular target: Caspase-7 (Homo sapiens, UniProt P55210); assay: human caspase-7 inhibitors, dose response, selectivity assay for caspase-6 inhibitor project, biochemical, DEVD-R110 fluorescence, cherry-pick (AID 743295)
# Sequence of Caspase-7 (P55210 24-198 limits assumed): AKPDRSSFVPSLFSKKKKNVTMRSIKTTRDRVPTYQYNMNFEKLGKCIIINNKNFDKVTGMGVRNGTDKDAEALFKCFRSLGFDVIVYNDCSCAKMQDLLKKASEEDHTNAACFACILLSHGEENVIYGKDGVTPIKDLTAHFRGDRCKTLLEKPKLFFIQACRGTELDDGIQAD
# Sequence of Caspase-7 (P55210 207-303 limits assumed): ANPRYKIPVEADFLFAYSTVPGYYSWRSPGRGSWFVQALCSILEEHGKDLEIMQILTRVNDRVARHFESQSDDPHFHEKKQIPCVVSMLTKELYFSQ
# [11] = molecular target: T4, Low molecular weight phosphotyrosine protein phosphatase (Homo sapiens, UniProt P24666); format: functional; details: read-out: IC50_Mean;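 also: Dose-response confirmation assay measuring inhibition of LMPTP enzyme activity by fluorescence intensity read-out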
# T4 sequence (P24666 whole entry): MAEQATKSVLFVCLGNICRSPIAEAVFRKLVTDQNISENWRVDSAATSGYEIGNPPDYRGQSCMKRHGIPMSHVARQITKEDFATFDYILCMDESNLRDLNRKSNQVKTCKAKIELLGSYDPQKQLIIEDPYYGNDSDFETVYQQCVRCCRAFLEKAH
# [12] = molecular target: T5, Caspase-6 (Homo sapiens, UniProt P55212); assay: human caspase-6 inhibitors, dose response, biochemical, VEID-R110 fluorescence, cherry-pick (AID 720632)
# T5 sequence (P55212 whole entry): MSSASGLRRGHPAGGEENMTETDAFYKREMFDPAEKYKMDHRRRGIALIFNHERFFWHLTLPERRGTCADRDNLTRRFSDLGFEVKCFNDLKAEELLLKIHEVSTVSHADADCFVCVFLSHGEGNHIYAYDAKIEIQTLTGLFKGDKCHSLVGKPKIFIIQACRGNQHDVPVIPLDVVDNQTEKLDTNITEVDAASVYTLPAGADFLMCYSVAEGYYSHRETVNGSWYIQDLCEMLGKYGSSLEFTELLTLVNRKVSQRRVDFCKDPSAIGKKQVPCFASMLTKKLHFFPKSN
# [13] = ADAM10 inhibitors, peptide cleavage, dose response, biochemical, QFRET (AID 743254);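 also: ADAM10 enzyme with the DM2 quenched FRET peptide as substrate; EDANS fluorescence gain as the protease cuts the substrate; inhibitor potency against ADAM10 proteolytic activity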
# [14] = molecular target: Disintegrin and metalloproteinase domain-containing protein 17 (Homo sapiens, UniProt P78536); assay: ADAM17 protease inhibitors, dose response, counter-screen for ADAM10 exosite inhibitor project, biochemical, quenched FRET substrate (AID 743253)
# Sequence of Disintegrin and metalloproteinase domain-containing protein 17 (P78536 whole entry, the tested form may be a part): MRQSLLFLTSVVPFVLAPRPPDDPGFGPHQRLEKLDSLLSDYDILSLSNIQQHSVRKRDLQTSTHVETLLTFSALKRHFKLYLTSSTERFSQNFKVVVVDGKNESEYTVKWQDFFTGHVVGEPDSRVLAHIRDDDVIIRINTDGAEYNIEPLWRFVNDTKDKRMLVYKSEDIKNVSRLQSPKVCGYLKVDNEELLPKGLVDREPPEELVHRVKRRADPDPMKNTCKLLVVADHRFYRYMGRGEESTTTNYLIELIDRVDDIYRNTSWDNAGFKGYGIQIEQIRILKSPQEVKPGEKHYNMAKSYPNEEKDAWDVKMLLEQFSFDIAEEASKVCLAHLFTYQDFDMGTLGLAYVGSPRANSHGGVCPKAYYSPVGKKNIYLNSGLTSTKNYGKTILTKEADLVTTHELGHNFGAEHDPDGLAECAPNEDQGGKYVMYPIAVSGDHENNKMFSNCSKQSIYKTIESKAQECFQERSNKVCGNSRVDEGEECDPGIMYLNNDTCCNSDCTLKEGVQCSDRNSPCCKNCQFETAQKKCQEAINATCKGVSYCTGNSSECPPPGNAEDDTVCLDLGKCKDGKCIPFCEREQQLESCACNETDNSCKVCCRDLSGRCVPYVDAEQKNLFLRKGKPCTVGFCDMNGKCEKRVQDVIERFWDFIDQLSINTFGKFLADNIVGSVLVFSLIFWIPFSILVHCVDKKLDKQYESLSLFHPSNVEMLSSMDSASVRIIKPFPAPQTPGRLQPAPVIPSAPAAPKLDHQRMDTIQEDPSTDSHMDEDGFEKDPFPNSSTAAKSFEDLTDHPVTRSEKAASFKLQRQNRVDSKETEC
# T1 sequence (Q79MP6 whole entry): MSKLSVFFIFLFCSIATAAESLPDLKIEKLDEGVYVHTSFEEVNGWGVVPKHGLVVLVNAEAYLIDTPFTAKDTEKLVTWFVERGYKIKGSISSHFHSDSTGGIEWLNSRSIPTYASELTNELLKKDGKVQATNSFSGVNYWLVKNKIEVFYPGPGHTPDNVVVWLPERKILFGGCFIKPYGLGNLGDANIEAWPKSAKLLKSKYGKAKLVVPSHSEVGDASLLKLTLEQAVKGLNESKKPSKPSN
compound,measurement,setting,value
O=c1c2ccccc2cnn1Cc1nnc(S)n1C1CC2CCC1C2 (configuration not stated),IC50,[1],> 59.6 µM (inactive)
same,IC50,[2],> 59.6 µM (inactive)
same,IC50,[3],> 59.6 µM (inactive)
O=C(c1ccc2nc(Cc3ccccc3F)oc2c1)N1CC[C@H](O)C1,IC50,[4],> 67.6 µM (inactive)
same,IC50,[5],> 67.6 µM (inactive)
COCCn1c(SCC(=O)N2CCCCC2)nc2c(c1=O)SCC2,IC50,[6],> 9.99 µM (inactive)
c1ccc(CSc2ccc(-c3cccs3)nn2)cc1,EC50,[7],> 67.5 µM (inactive)
Cc1oc(C)c(C(=O)Nc2ccc(CC(=O)O)cc2)c1C(=O)Nc1ccc(CC(=O)O)cc1,IC50,[6],> 9.99 µM (inactive)
COc1cc2c(c(OC)c1OC)-c1ccc(OC)c(=O)cc1C(NC(=O)c1ccccc1)CC2 (configuration not stated),IC50,[4],> 67.5 µM (inactive)
same,IC50,[5],> 67.5 µM (inactive)
c1ccc(-c2noc(-c3cccc4ccccc34)n2)nc1,EC50,[8],> 67.5 µM (inactive)
same,EC50,[9],> 67.5 µM (inactive)
CCOC(=O)c1sc2nc(OCCN3CCOCC3)cc(C)c2c1N,AC50,[10],45.2 µM (active)
same,IC50,[11],61.1 µM (inactive)
same,AC50,[12],2.18 µM (active)
CCCCCCCCNS(=O)(=O)/C=C/c1ccccc1CNC(=O)OC(C)(C)C,IC50,[13],> 7.73 µM (active)
same,IC50,[14],> 69.6 µM (inactive)

# Reference: ChEMBL document CHEMBL1201862, “PubChem BioAssay data set” (2004)
